Test results as given in article PMC4978154, “Phase I metabolites of mephedrone display biological activity as substrates at monoamine transporters” (British Journal of Pharmacology, 2016).
Where two headings read alike, the source gives them in different places.

Columns and labels:
NET = target: T1, NET (Rattus norvegicus, UniProt Q63380); test: Transporter release assay in rat brain synaptosomes, NET; format: biochemical; conditions: [3H]-MPP+, mean (95% confidence interval)
T1 construct: a native tissue preparation that contains plasma membrane transporters in situ; from tissue; host or cells: rat whole brain minus striatum and cerebellum, synaptosomes
T1 sequence (Q63380 1-617): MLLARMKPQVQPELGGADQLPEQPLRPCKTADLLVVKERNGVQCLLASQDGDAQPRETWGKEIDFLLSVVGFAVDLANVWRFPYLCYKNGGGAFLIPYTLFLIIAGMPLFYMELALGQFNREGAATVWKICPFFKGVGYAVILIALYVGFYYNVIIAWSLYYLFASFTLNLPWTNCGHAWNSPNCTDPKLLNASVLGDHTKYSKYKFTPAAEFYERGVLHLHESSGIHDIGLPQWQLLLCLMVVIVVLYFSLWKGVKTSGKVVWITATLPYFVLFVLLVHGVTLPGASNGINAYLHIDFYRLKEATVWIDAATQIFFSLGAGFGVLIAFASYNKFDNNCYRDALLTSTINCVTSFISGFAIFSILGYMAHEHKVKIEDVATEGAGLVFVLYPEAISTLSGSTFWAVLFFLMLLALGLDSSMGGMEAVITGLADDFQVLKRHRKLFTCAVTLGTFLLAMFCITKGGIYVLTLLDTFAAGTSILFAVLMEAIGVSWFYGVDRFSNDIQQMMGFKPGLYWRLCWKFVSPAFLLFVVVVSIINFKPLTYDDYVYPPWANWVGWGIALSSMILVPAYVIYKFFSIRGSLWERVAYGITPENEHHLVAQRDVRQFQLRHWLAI
Experimental: The ability of mephedrone and its metabolites to evoke release via DAT, NET and SERT was determined in rat brain synaptosomes as previously described (Baumann et al., 2012). Rats were killed with CO2, decapitated, and brains were rapidly removed and dissected on ice. Synaptosomes were prepared from striatum for DAT assays, whereas synaptosomes were prepared from whole brain minus striatum and cerebellum for the NET and SERT assays. [^3H]‐MPP^+ (9 nM) was used as the radiolabelled substrate for DAT and NET, whereas [^3H]‐5‐HT (5 nM) was used as the radiolabelled substrate for SERT. All buffers used in the release assays contained 1 μM reserpine to block vesicular uptake of substrates. The selectivity of assays was optimized for a single transporter by including unlabelled compounds [nomifensine and 1‐(2‐diphenylmethoxyethyl)‐4‐(3‐phenylpropyl)piperazine dihydrochloride (GBR12935) for SERT; GBR12935 and citalopram for NET; citalopram and desipramine for DAT] to prevent the uptake of [^3H]‐MPP^+ or [^3H]‐5‐HT by competing transporters. Synaptosomes were preloaded with radiolabelled substrate in Krebs‐phosphate buffer, which consisted of 126 mM NaCl, 2.4 mM KCl, 0.5 mM KH2PO4, 1.1 mM CaCl2, 0.83 mM MgCl2, 0.5 mM Na2SO4, 11.1 mM glucose, 13.7 mM Na2HPO4, 1 mg·mL^−1 ascorbic acid and 50 μM pargyline (pH = 7.4) for 1 h (steady state). […] Assays were terminated by vacuum filtration, and retained radioactivity was quantified by liquid scintillation counting.
Calculations were performed using Microsoft Excel® 2010 (Microsoft Corporation, Redmond, WA, USA) and GRAPHPAD PRISM 5.0. […] IC50 values for uptake inhibition and EC50 values for release were determined by nonlinear regression fits. Release data expressed as AUC were analysed by one‐way ANOVA followed by Bonferroni's multiple comparison test. Microdialysis and locomotor data were analysed by two‐way ANOVA (drug treatment × time) followed by Bonferroni's test. The effect of monensin treatment on basal efflux of tritiated substrate was analysed with the Mann–Whitney test. […]

rats = test: Locomotor activity (photobeam breaks) during microdialysis; format: in vivo; conditions: rat; for effect on motor behaviour (activity): 1 and 3 mg·kg−1 i.v.; for effect on motor activity: 3 mg·kg−1 i.v.
Experimental: In vivo microdialysis procedures were carried out as previously described with minor modifications (Baumann et al., 2012). Briefly, male rats anaesthetized with sodium pentobarbital (60 mg·kg^−1, i.p.) received surgically implanted jugular catheters, and intracerebral guide cannulae aimed at the nucleus accumbens (AP +1.6 mm, ML −1.7 mm relative to bregma; −6.2 mm relative to dura) (Paxinos and Watson, 2007). After a 7–10 day recovery, each rat was placed into a chamber equipped with photobeams for the detection of motor parameters (TruScan, Harvard Apparatus, Holliston, MA, USA) and allowed to acclimatize overnight. Food and water were available ad libitum during the acclimatization period. On the following morning, catheters were attached to PE 50 extension tubes, and 0.5 × 2 mm microdialysis probes (CMA/12, Harvard Apparatus, Holliston, MA, USA) were inserted into the guide cannulae. Ringers' solution (150 mM NaCl, 2.8 mM KCl and 2.0 mM CaCl2) was perfused through the probes at 0.6 μL·min^−1 for 3 h. To commence experiments, dialysate samples ([…]) were collected at 20 min intervals, and drug or saline treatments were given after three baseline samples were obtained. Rats received two sequential i.v. injections of mephedrone or its metabolites, with 1 mg·kg^−1 administered at time zero, followed by 3 mg·kg^−1 60 min later. Saline was administered using the same schedule in a separate group of rats. Dialysate concentrations of dopamine and 5‐HT were quantified using HPLC coupled to electrochemical detection (Baumann et al., 2012). Chromatographic data were exported to an Empower software system (Waters, Inc., Milford, MA, USA) for peak identification, integration and analysis.
Calculations were performed using Microsoft Excel® 2010 (Microsoft Corporation, Redmond, WA, USA) and GRAPHPAD PRISM 5.0. (GraphPad Software Inc., La Jolla, CA, USA). IC50 values for uptake inhibition and EC50 values for release were determined by nonlinear regression fits. Release data expressed as AUC were analysed by one‐way ANOVA followed by Bonferroni's multiple comparison test. Microdialysis and locomotor data were analysed by two‐way ANOVA (drug treatment × time) followed by Bonferroni's test. The effect of monensin treatment on basal efflux of tritiated substrate was analysed with the Mann–Whitney test. P values less than 0.05 (i.e. P < 0.05) were considered significant. The data and statistical analysis comply with the recommendations on experimental design and analysis in pharmacology (Curtis et al., 2015).

[1] = forensic traffic case, ref Pedersen et al., 2013, cited from earlier work; for blood concentration, first case: parent drug:metabolite 28:2; for blood concentration, second case: parent drug:metabolite 29:9
[2] = EC50 on transporter mediated efflux, NET

Compound	EC50 (NET; read-out: EC50 on transporter mediated efflux, NET)	effect on motor behaviour (activity) (rats)	blood concentration, first case [1]	blood concentration, second case [1]	EC50 (NET; [2])	effect on motor activity (rats)
CNC(C)C(=O)c1ccc(CO)cc1.Cl (stereo not drawn) [4‐OH‐mephedrone, 1‐(4‐(hydroxymethyl)phenyl)‐2‐(methylamino)propan‐1‐one hydrochloride]	150 nM	did not	2 µg/kg	9 µg/kg	–	–
CNC(C)C(=O)c1ccc(C)cc1.Cl (stereo not drawn) [Mephedrone, 2‐Methylamino‐1‐(p‐tolyl)propan‐1‐one hydrochloride]	–	increased activity	28 µg/kg	29 µg/kg	90 nM	significantly stimulated motor activity
Cc1ccc(C(=O)C(C)N)cc1.Cl (stereo not drawn) [Nor‐mephedrone, 2‐amino‐1‐(p‐tolyl)propan‐1‐one hydrochloride]	–	increased activity	–	–	100 nM	significantly stimulated motor activity
